From publication PMC9416111, “Synthesis and Biological Activity of Unsymmetrical Monoterpenylhetaryl Disulfides” (Molecules, 2022)
Values after ≈ are worked out from the molar mass of the structure shown.

How the values were obtained:
[1] = test system: S. typhimurium TA98, TA100 and TA102 strains; experiment: Mutagenicity in the Ames test (spot-test); type: cell-based, Salmonella typhimurium; settings: strain in which mutagenicity was found; NF = not found
Procedure: The mutagenicity of compounds was evaluated in the Ames test with S. typhimurium TA98, TA100 and TA102 strains as described in [38]. The spot-test modification has been applied to avoid false-negative results driven with antibacterial activity of compounds. The tested compound was considered to be mutagenic if the number of revertant colonies increased more than 2 times close to the filter paper with compound.

P. aeruginosa ATCC 27853 = experiment: Antibacterial MIC, broth microdilution (EUCAST); type: cell-based, Pseudomonas aeruginosa; settings: Pseudomonas aeruginosa, ATCC27853; 24 h, Mueller-Hinton broth
Procedure: (§1) Minimum inhibitory concentrations (MICs) of compounds was determined by the broth microdilution assay in 96-well plates (Eppendorf, Hamburg, Germany) according to the EUCAST rules for antimicrobial susceptibility testing in full Mueller-Hinton broth (MH). The concentrations of compounds to be tested ranged from 1 to 2048 µg/mL. The MIC was determined as the lowest concentration of an antibiotic for which no visible bacterial growth could be observed after 24 h of incubation.

[2] = test system: S. aureus ATCC 29213 (MSSA); experiment: Antibacterial MIC, broth microdilution (EUCAST); type: cell-based, Staphylococcus aureus; settings: Staphylococcus aureus, 24 h, Mueller-Hinton broth
Procedure: as §1

[3] = test system: S. aureus MRSA clinical isolate; experiment: Antibacterial MIC, broth microdilution (EUCAST); type: cell-based, Staphylococcus aureus; settings: Staphylococcus aureus, MRSA; 24 h, Mueller-Hinton broth
Procedure: as §1

[4] = test system: red blood cells from laboratory mice; experiment: Erythrotoxicity (hemolytic activity); type: cell-based; settings: 100 μM, 1, 3 and 5 h of incubation
Procedure: No significant hemolytic activity was detected at a concentration of 1 μM (Figure 3B).
(§2) To evaluate the erythrotoxicity, antioxidant and membrane-protective activity of the compounds, we used 0.5% (v/v) suspension of red blood cells from laboratory mice in phosphate-buffered saline (PBS, pH 7.4). The test substances were previously dissolved in ethanol. Erythrotoxicity (hemolytic activity) was evaluated by the degree of hemolysis of red blood cells 1–5 h after the introduction of solutions of the compounds. Membrane-protective and antioxidant activity was determined by the degree of inhibition of H2O2-induced hemolysis. For this purpose, 30 min after the erythrocyte suspension was added to the solutions of the test compounds, hemolysis was initiated with a solution of hydrogen peroxide (0.006%). Then, the reaction mixture was incubated in a thermostatic shaker Biosan ES-20 with slow stirring at 37 °C for 5 h. An aliquot was taken from the incubation medium every hour, centrifuged for 5 min (1600× g), and the degree of hemolysis was determined by the hemoglobin content in the supernatant on a ThermoSpectromic Genesys 20 spectrophotometer (Thermo Fisher Scientific, Waltham, MA, USA) at 524 nm. The percentage of hemolysis was calculated in relation to the complete hemolysis of the sample. Each experiment was designed with 4–8 replicates. Statistical data processing and charting were performed using the Microsoft Office Excel 2007 software package (Microsoft, Redmond, WA, USA). The data represent the mean ± SE.
Figure 3 Hemolytic activity of unsymmetrical disulfides at the concentration of 100 μM (A) and 1 μM (B) after 1, 3 and 5 h of incubation.

[5] = test system: influenza virus A/Puerto Rico/8/34 (H1N1); experiment: Antiviral cell protection assay in MDCK cells; type: cell-based; settings: H1N1, MDCK, 72 h
in vitro = settings: dog
[6] = test system: Candida albicans 703 clinical isolate; experiment: Antifungal MIC, broth microdilution (CLSI M27-A3); settings: Candida albicans, 24 h, read-out: MIC C. albicans 703 Clinical Isolate
[7] = Cytotoxicity, MTT on EBL cells; settings: bovine, EBL cells (embryonic bovine lung)
Procedure: Cytotoxicity of compounds was determined using the microtetrazolium test (MTT) on EBL cells. The cells were cultured in DMEM—Dulbecco’s Modified Eagle’s Medium (Sigma Aldrich, St. Louis, MO, USA) supplemented with 10% FBS, 2 mM L-glutamine, 100 µg/mL penicillin and 100 µg/mL streptomycin. Cells were seeded in 96-well plates with the density of 3000 cells per well and left overnight to allow for the attachment. Cells were next cultured at 37 °C and 5% CO2 in the presence of compounds of interest at various concentrations from 1.25 to 160 µg/mL. After 24 h of cultivation the cells were subjected to MTT-assay. The formazan was solubilized by DMSO and the optical density was measured on Tecan Infinite 200Pro at 570 nm. The concentration required to inhibit cellular dehydrogenase activity by 50% (CC50 value) was calculated by using GraphPad Prism 6.0 software (GraphPad software, San Diego, CA, USA).

[8] = test system: red blood cells from laboratory mice; experiment: Membrane-protective activity: H2O2-induced hemolysis of erythrocytes; type: cell-based; settings: 1 μM, 1–5 h
Procedure: The membrane-protective properties of the compounds were evaluated in the model of oxidative hemolysis of erythrocytes at a concentration of 1 μM in order to avoid the effect of hemolytic activity.
as §2
Figure 4 Effect of unsymmetrical disulfides and Trolox (T) at a concentration of 1 μM on the level of H2O2-induced hemolysis of erythrocytes after 1–5 h of incubation.

[9] = Antioxidant activity: inhibition of lipid peroxidation (TBA-RS) in brain homogenates; set-up: species or system mice; settings: 100 μM and 1 mM, 1 h after initiation of LPO (ascorbate/Fe2+)
Procedure: The antioxidant activity of monoterpenylhetaryl disulfides was evaluated for their in vitro ability to inhibit lipid peroxidation (LPO) processes in the brain lipids of laboratory mice. The brain was removed and homogenized (10%) in physiological saline (pH = 7.4) and centrifuged for 10 min. Then, an aliquot of the supernatant (S1) was taken, into which the test compounds were added as solutions in ethanol (final concentration of 100 μM and 1 mM). After 30 min, LPO was initiated by adding a freshly prepared solution of FeSO4 and ascorbic acid. Then, the test samples were incubated for one hour at 37 °C with slow stirring in a thermostatic Biosan ES-20 shaker (Biosan, Riga, Latvia). The concentration of LPO secondary products reacting with 2-thiobarbituric acid (thiobarbituric acid reactive substances, TBA-RS) was determined using ThermoSpectromic Genesys 20 spectrophotometer (Thermo Fisher Scientific, Waltham, MA, USA) at λ = 532 nm, the extinction coefficient 1.56 × 10^5 M^−1cm^−1 was used for calculations.
Figure 2 Effect of unsymmetrical disulfides and Trolox (T) at concentrations of 100 μM and 1 mM on the content of TBA-RS in the brain homogenate in an hour after the initiation of LPO (ascorbate/Fe^2+ initiators). C—control sample containing no test compounds; I—intact sample in which LPO was not initiated.

CC(C)[C@@H]1CC[C@@H](C)C[C@@H]1SSc1nc2ccccc2s1 [Compound 1a, 2-(((1S,2S,5R)-2-isopropyl-5-methylcyclohexyl)disulfanyl)benzo[d]thiazole]
Mutagenicity in the Ames Test [1]: TA 100 | MIC (P. aeruginosa ATCC 27853): 16 µg/mL (≈ 47.4 µM) | MIC [2]: 16 µg/mL (≈ 47.4 µM) | MIC [3]: 16 µg/mL (≈ 47.4 µM) | hemolytic activity (erythrotoxicity), in words [4]: Low hemolytic activity | IC50 [5]: 5 ± 1 µM | CC50 (in vitro): 36 ± 3 µM | MIC [6]: 512 µg/mL (≈ 1520 µM) | CC50 at 24 h [7]: 11.7 µg/mL (≈ 34.7 µM)

COC(=O)c1cccnc1SSC[C@@H]1[C@@H](O)C[C@H]2C[C@@H]1C2(C)C [Compound 4c, Methyl 2-((((1S,2S,3S,5R)-3-hydroxy-6,6-dimethylbicyclo[3.1.1]heptan-2-yl)methyl)disulfanyl)pyridine-3-carboxylate]
MIC (P. aeruginosa ATCC 27853): > 1020 µg/mL | MIC [2]: 1020 µg/mL (≈ 2900 µM) | MIC [3]: > 1020 µg/mL | IC50 [5]: 34 ± 4 µM | CC50 (in vitro): 40 ± 2 µM | membrane-protective activity, in words [8]: most active | MIC [6]: 1020 µg/mL (≈ 2900 µM) | antioxidant activity (inhibition of oxidation of brain lipids), in words [9]: highest antioxidant activity

COC(=O)c1cccnc1SS[C@H]1C[C@H]2C[C@@H]([C@@H]1CO)C2(C)C [Compound 3c, Methyl 2-(((1S,2R,3S,5R)-2-(hydroxymethyl)-6,6-dimethylbicyclo[3.1.1]hept-3-yl)disulfanyl)pyridine-3-carboxylate]
MIC (P. aeruginosa ATCC 27853): 1020 µg/mL (≈ 2900 µM) | MIC [2]: 64 µg/mL (≈ 181 µM) | MIC [3]: 32 µg/mL (≈ 90.5 µM) | IC50 [5]: 255 ± 31 µM | CC50 (in vitro): > 283 µM | membrane-protective activity, in words [8]: most active | MIC [6]: 1020 µg/mL (≈ 2900 µM) | CC50 at 24 h [7]: 8.1 µg/mL (≈ 22.9 µM) | antioxidant activity (inhibition of oxidation of brain lipids), in words [9]: highest antioxidant activity

Cc1cc(C)nc(SS[C@H]2C[C@H](C)CC[C@H]2C(C)C)n1 [Compound 1b, 2-(((1S,2S,5R)-2-isopropyl-5-methylcyclohexyl)disulfanyl)-4,6-dimethylpyrimidine]
Mutagenicity in the Ames Test [1]: TA 102 | MIC (P. aeruginosa ATCC 27853): 32 µg/mL (≈ 103 µM) | MIC [2]: 16 µg/mL (≈ 51.5 µM) | MIC [3]: 32 µg/mL (≈ 103 µM) | IC50 [5]: 13 ± 2 µM | CC50 (in vitro): 29 ± 2 µM | MIC [6]: 512 µg/mL (≈ 1650 µM) | CC50 at 24 h [7]: 14 µg/mL (≈ 45.1 µM)
